From patent US20140011711A1, “MICROARRAY CELL CHIP” (Solidus Biosciences, Inc., priority 2010, published 2014)

Experiments:
Hep3B cell [1] = experiment: Toxicity test of drugs, Hep3B cell cultured in microtiter plate (2D monolayer in 96-wells); assay type: cell-based; conditions: read-out: IC50 (concentration of drug when 50% of cells shows the growth inhibition), Microtiter Plate (2D Hep3B cell monolayer in 96-wells), drug cultured for a day
Text: The values shown in the above Table were obtained based on the results of culturing the drug for a day, dying it immediately after the culturing, and scanning it.

Hep3B cell [2] = experiment: Toxicity test of drugs, Hep3B cell cultured in microarray cell chip (3D alginate culture on the chip); assay type: cell-based; conditions: read-out: IC50 (concentration of drug when 50% of cells shows the growth inhibition), Cell chip according to Invention (3D Hep3B cell culture on the chip); 3D Hep3B cell culture in alginate on the chip; drug cultured for a day; calcein AM / ethidium homodimer-1 staining
Experimental: The mixture of the alginate-Hep3B cell line primarily combined the upper substrate 100 formed on the spacer with the lower substrate 200 having 800 nl of culture medium in the well 210 to gelate the alginate, thereby removing the extra barium chloride. The upper substrate 100 is separated after removing the extra barium chloride and again combines with the lower substrate 200 having 800 nl of new culture medium in the well 210, thereby culturing the Hep3B cell.
After the culture ends, the Hep3B cell existing on the upper substrate 100 was dyed with the fluorescent material (calcein AM and ethidium homodimer-1).

Row | Compound | IC50 (Hep3B cell [1]) | IC50 (Hep3B cell [2])
1 | CCN(CC)CCCC(C)Nc1ccnc2cc(Cl)ccc12 (stereo not drawn) [Chliroquine, Chloroquine] | 50 µM | –
2 | O=C(O)Cc1ccccc1Nc1c(Cl)cccc1Cl [Diclofenac] | 230 µM | 375 µM
3 | CCN(CC)C(=O)/C(C#N)=C/c1cc(O)c(O)c([N+](=O)[O-])c1 [Entacapone] | 850 µM | 381 µM
4 | CO[C@@]12[C@H](COC(N)=O)C3=C(C(=O)C(C)=C(N)C3=O)N1C[C@@H]1N[C@@H]12 [Mitomycin C] | 40 µM | 124 µM
5 | Cc1ccc(C(=O)c2cc(O)c(O)c([N+](=O)[O-])c2)cc1 [Tolcapone] | 50 µM | 171 µM
